Tested on: facial Rosacea
Test: clinical type observations of topical application to facial skin
Type: in vivo
Settings: pyrithione zinc aqueous solution of 1% concentration strength as sole active ingredient
Protocol: In usage, the fluid composition of the invention is to be administered topically by a vehicle or carrier medium compatible with application to the skin. A useful regimen would be to a) mix 1 part of a 1% concentration strength pyrithione zinc aqueous solution with 3 parts of a cocoa butter emulsion moisturizer cream carrier; b) apply the fluid composition to the facial area of concern; c) leave the fluid composition for 2-3 minutes at the area of application; and d) rinse it off. […] For a more resistant condition of facial Rosacea, the regimen would be essentially the same—but with an increased concentration strength of pyrithione zinc aqueous solution, as by the addition of further pyrithione zinc (or zinc pyrithione) crystals to the aqueous formulation.

How did the “redness, flushing and inflammation associated with facial Rosacea and skin erythema” value turn out when [O-]n1ccccc1=S.[O-]n1ccccc1=S.[Zn+2] [pyrithione zinc, Bis [1-hydroxy-2(1H)-pyridinethionato-O,S] (T-4) zinc] was run?
The value was “significantly reducing the redness, flushing and inflammation”.

From patent US20180256596A1, “METHOD AND TOPICAL COMPOSITION FOR THE TREATMENT OF ROSACEA AND SKIN ERYTHEMA USING PYRITHIONE ZINC” (priority 2017, published 2018)
